Source: US20080025986A1, “Methods of Treating Tnf-Mediated Disorders” (priority 2003, published 2008)

How the values were obtained:
Assay type in all cases: cell-based
[1] = test system: JNK; assay: TNF-induced JNK activation; conditions: FIG. 11
Text: (§1) FIG. 5 depicts various downstream signaling events that are triggered by TNF binding to a TNF receptor. TNF-mediated activation of various serine-threonine kinases are differentially affected by pirfenidone. Therefore, activation of transcription factors downstream of a given kinase will be differentially affected by pirfenidone. FIG. 6 depicts pirfenidone inhibition of TNF-induced ERK activation. FIG. 7 depicts pirfenidone inhibition of TNF-induced p38 MAPK activation. FIG. 8 depicts pirfenidone inhibition of TNF-induced activation of the transcription factor CREB. FIG. 9 depicts pirfenidone inhibition of TNF-induced activation of RAF kinase. FIG. 10 depicts pirfenidone inhibition of TNF-induced activation of AKT. FIG. 11 depicts pirfenidone potentiation of TNF-induced JNK activation.
(§2) While phosphorylation of CREB is diminished due to decreased activity of p38 in the presence of pirfenidone, phosphorylation of the JNK-phosphorylated transcription factor ATF2 is potentiated in the presence of pirfenidone. FIG. 12 depicts pirfenidone potentiation of ATF2. Thus, pirfenidone potentiates TNF-induced activation of the JNK kinase pathway.

[2] = test system: RAF; assay: Western blot, TNF-induced RAF kinase activation in cells; conditions: TNF cascade, P<0.01
Method: (§3) To explore the possibility that Pirfenidone could be used to treat NASH, the effects of pirfenidone on cells stimulated with Insulin in the presence or absence of TNF-α were examined.
(§4) When cells were treated with Pirfenidone, TNF-α mediated Insulin resistance was ameliorated. […] More specifically, Pirfenidone decreased ERK activation by 7-fold, p38 MAPK by 2-fold and RAF activation by 2-fold (P<0.01 for all observations). In addition, Pirfenidone decreased the TNF-α mediated phosphorylation of the transcription activation factor CREB by 2-fold (P<0.01). […] In addition, Pirfenidone increased insulin-induced phosphorylation of IRS1. […] The results are depicted in FIGS. 3 and 4. FIG. 3 depicts inhibition of MAPK by pirfenidone. FIG. 4 depicts enhancement of insulin signaling by pirfenidone.
as §1, with “FIG. 9 depicts pirfenidone inhibition of TNF-induced activation of RAF kinase. FIG. 10 depicts pirfenidone inhibition of TNF-induced activation of AKT. FIG. 11 depicts pirfenidone potentiation of TNF-induced JNK activation.” left out

[3] = test system: AKT; assay: TNF-induced activation of AKT; conditions: FIG. 10
Text: as §1

[4] = test system: p38 MAPK; assay: Western blot, TNF-induced p38 MAPK activation in cells; conditions: TNF cascade, P<0.01
Method: as §3, §4
as §1, with “FIG. 9 depicts pirfenidone inhibition of TNF-induced activation of RAF kinase. FIG. 10 depicts pirfenidone inhibition of TNF-induced activation of AKT. FIG. 11 depicts pirfenidone potentiation of TNF-induced JNK activation.” left out

[5] = test system: ERK; assay: Western blot, TNF-induced ERK activation in cells; conditions: TNF cascade, P<0.01
Method: as §3, §4
as §1, with “FIG. 9 depicts pirfenidone inhibition of TNF-induced activation of RAF kinase. FIG. 10 depicts pirfenidone inhibition of TNF-induced activation of AKT. FIG. 11 depicts pirfenidone potentiation of TNF-induced JNK activation.” left out

[6] = test system: ATF2; assay: Phosphorylation of JNK-phosphorylated transcription factor ATF2; conditions: FIG. 12
Text: as §2

[7] = test system: IRS1; assay: Insulin signaling in cells stimulated with insulin in the presence or absence of TNF-α
Method: as §3, §4

[8] = test system: CREB; assay: TNF-α mediated phosphorylation/activation of transcription factor CREB
Method: as §3, §4
as §1, with “FIG. 9 depicts pirfenidone inhibition of TNF-induced activation of RAF kinase. FIG. 10 depicts pirfenidone inhibition of TNF-induced activation of AKT. FIG. 11 depicts pirfenidone potentiation of TNF-induced JNK activation.” left out

[9] = test system: AP-1; assay: AP-1 activation

In the case of `Cc1ccc(=O)n(-c2ccccc2)c1` [Pirfenidone, 5-methyl-1-phenyl-2-(1H)-pyridone], the “effect on TNF-induced JNK activation” value [1] is reported as “potentiation”, the “decrease of RAF activation” value [2] is reported as 2 fold and the “effect on TNF-induced activation of AKT” value [3] is reported as “inhibition”. For the same compound, the “decrease of p38 MAPK activation” value [4] was 2 fold, the “decrease of ERK activation” value [5] was 7 fold and the “effect on phosphorylation of ATF2” value [6] was “potentiated”. For the same compound, the “effect on TNF-α mediated insulin resistance” value ([7]; cells treated with TNF-α) was “ameliorated”, the “effect on TNF-α-mediated inhibition of insulin-induced IRS1 tyrosine phosphorylation” value ([7]; insulin plus TNF-α) was “blocks” and the “effect on insulin-induced phosphorylation of IRS1” value ([7]; insulin stimulation) was “increased”. The “decrease of TNF-α mediated phosphorylation of CREB” value ([8]; P<0.01) was 2 fold, the “upper limit of inhibition of CREB activation” value ([8]; at maximal pirfenidone concentrations) was ≤ 75% and the “effect on AP-1 activation” value [9] was “potentiates”.
